# Assay: Human HepG2 cell viability assay in 384 well format
# Type: toxicity, cell-based
# Set-up: dose 125 nL, time 70.5 hour; cytotoxicity at 70.5 h: concentration not given beside the values
# Settings: HepG2 cells, read-out: Inhibition
row,Compound,cytotoxicity at 70.5 h [%]
1,CCNc1cc2c(nn1)CCN(C(=O)CC1CCCC1)C2,-5.46
2,CN(Cc1cccc(F)c1)C(=O)CN1CCOC(Cn2cncn2)C1 (configuration not stated),-0.78
3,Cc1nccn1C1CCCN(C(=O)c2cnc[nH]2)C1 (configuration not stated),-0.305
4,COc1c(C)cnc(CN2CCCC2Cn2nc(C)nc2C)c1C (configuration not stated),-3.93
5,CCn1cc(NC(=O)NCC(C)N2CCCC2)cn1 (configuration not stated),22.1
6,Cc1ccc(-c2nc(CN3CCCC3Cn3cncn3)cs2)o1 (configuration not stated),-2.7
7,c1csc(-c2nc(CN3CCCCC3Cn3cncn3)cs2)c1 (configuration not stated),-14.9
8,CNS(=O)(=O)CCCN1CCCC1c1noc(C)n1 (configuration not stated),-3.7
9,Cc1ccoc1-c1nnc(CN2CCOC(Cn3cccn3)C2)o1 (configuration not stated),-2.97
10,CCN1CCN(C2CCN(Cc3nc(CCOC)no3)CC2)C1=O,-3.79
11,COc1ccc(C(=O)N2CCCC(n3nc(C)nc3C)C2)c(OC)c1 (configuration not stated),21.8
12,CS(=O)(=O)CCN1CCCC1c1noc(C2CC2)n1 (configuration not stated),0.883
13,Cn1c(NCC(O)c2ccc(Cl)cc2)c(C#N)c(=O)n(C)c1=O (configuration not stated),-4.06
14,Cn1c(NCC(O)c2ccccc2F)c(C#N)c(=O)n(C)c1=O (configuration not stated),-1.35
15,CC(NC(=O)NCCCc1n[nH]c(N)c1C#N)c1ccccc1F (configuration not stated),0.683
16,CC(NC(=O)NCCCc1n[nH]c(N)c1C#N)c1cccc(Cl)c1 (configuration not stated),-4.21
17,Cn1c(NCC(O)c2ccc(F)cc2)c(C#N)c(=O)n(C)c1=O (configuration not stated),-5.75
18,CCN1CCN(C(C)CNC(=O)Nc2cnn(CC)c2)CC1 (configuration not stated),-7.65
19,CCn1cc(NC(=O)NCC(C)N(C)C)cn1 (configuration not stated),18.2
20,CC(C)N(CC(N)=O)Cc1csc(C(C)(C)C)n1,3.87
21,O=C1CC(N(C(=O)c2ccc(F)c(F)c2)C2CC2)C(=O)N1 (configuration not stated),-9.51
22,c1cnc(-c2nc(CN3CCCC3Cn3cncn3)cs2)nc1 (configuration not stated),-5.35
23,O=C1CC(N(C(=O)c2ccc(F)c(C(F)(F)F)c2)C2CC2)C(=O)N1 (configuration not stated),0.0677
24,CCN1CCN(C2CCN(Cc3noc(C4CC4)n3)CC2)C1=O,-3.61

row,Compound,cytotoxicity at 70.5 h [%]
1,CC(C)(C)c1n[nH]c(C2CN(Cc3nnc(C4CCC4)o3)CCO2)n1 (configuration not stated),-2.38
2,Cc1nc(CN2CCCC(NCCOc3cccc(C#N)c3)C2)no1 (configuration not stated),-2.71
3,Cc1nc(C)n(CC2CCCN(CCOc3ccc(C#N)cc3)C2)n1 (configuration not stated),-11.5
4,CCc1cnc(CN2CCC(N(Cc3noc(CC)n3)C(C)=O)C2)o1 (configuration not stated),-9.22
5,CC(NC(=O)NCCn1ccnc1)c1ccc2c(c1)CCC(=O)N2 (configuration not stated),13.7
6,Cc1cc(C)n(CC2CN(c3cnc4ccccc4n3)CCO2)n1 (configuration not stated),-8.47
7,Cc1nc(NC(=O)c2ccc(-n3ncc(C#N)c3N)cc2)sc1C,17
8,Cc1ccnc(NC(=O)c2ccc(-n3ncc(C#N)c3N)cc2)c1,-6.86
9,COc1cccc2cc(CNC(=O)N3CCC(C(N)=O)CC3)oc12,-8.48
10,CC(=O)c1cccc(OCC(=O)NS(=O)(=O)c2ccc(Br)s2)c1,-2.56
11,CC(=O)c1ccc(OCC(=O)NS(=O)(=O)c2ccc(C)s2)cc1,-14
12,O=C1C(NS(=O)(=O)c2ccc(F)cc2F)CCN1Cc1ccccc1 (configuration not stated),-7.99
13,COCC(C)NC(=O)c1cc(C)n(-c2cccc(OC)c2)c1C (configuration not stated),-5.2
14,COc1cccc(CC(=O)N2CCCC(n3nc(C)cc3C)C2)c1 (configuration not stated),-14.1
15,COc1ccc(-c2nnc(CNCCn3cccn3)o2)cc1,-9.2
16,Cc1cc(C)n(C2CCCN(C(=O)Cc3cccc(F)c3)C2)n1 (configuration not stated),-9.48
17,Cc1nc(CN2CCCC(NCCCOc3ccc(F)cc3)C2)no1 (configuration not stated),-8.43
18,Cc1ccc(-c2nnc(CNCCn3cccn3)o2)cc1,13.9
19,COc1ccccc1CC(=O)N1CCCC(n2nc(C)nc2C)C1 (configuration not stated),-13
20,CCc1nc(CN(C(C)=O)C2CCN(CCc3ccccn3)C2)no1 (configuration not stated),-11.5
21,Cc1nc(C)n(CC2CCCN2CCOc2cccc(F)c2)n1 (configuration not stated),-9.85
22,CC(C)c1n[nH]c(C2CN(C(=O)c3cc4c(s3)CCC4)CCO2)n1 (configuration not stated),-8.59
23,Cc1nc(C)n(CC2CCCCN2CCOc2cccc(C#N)c2)n1 (configuration not stated),-7.98
24,O=C(c1cnc2c(cnn2C2CCCC2)c1)N1CCN(CCO)CC1,2.02

row,Compound,cytotoxicity at 70.5 h [%]
1,Cc1cc(C2CCCN(CCS(=O)(=O)c3ccccc3)C2)n[nH]1 (configuration not stated),-8.26
2,Cc1ccc(-c2nc(CNCC3CN(C)CCO3)co2)c(C)c1 (configuration not stated),5.24
3,Cc1cc(C2CCCN(CCCS(C)(=O)=O)C2)n[nH]1 (configuration not stated),-4.49
4,Cc1noc(C(C)C)c1C(=O)NCC(c1cccs1)N(C)C (configuration not stated),-8.63
5,CCN(CC)C(=O)C1CCCN1C(=O)c1cccc(-n2cnnn2)c1 (configuration not stated),-4.16
6,Cc1ccc(-c2nc(CNCC3CN(C)CCO3)co2)cc1 (configuration not stated),-2.95
7,Cc1cc(C2CCCN(CCNS(=O)(=O)c3ccccc3)C2)n[nH]1 (configuration not stated),24.5
8,O=C(CCCc1ccccc1)N1CCCC(n2cncn2)C1 (configuration not stated),-4.48
9,Cc1nc(CSCCC(=O)NCc2ccc(-n3cncn3)nc2)cs1,24.6
10,O=C(c1cccn1Cc1cccs1)N1CCCC1Cn1cccn1 (configuration not stated),-20.8
11,OCCn1cc(CN2CCN(CCOCC(F)(F)F)CC2)cn1,6.14
12,CCc1nnc2n1CCN(Cc1ccc3c(c1)OCCO3)C2,15.4
13,CN(Cc1cnn(C)c1)C(=O)NCc1csc(Br)c1,17.7
14,CCc1nnc2n1CCN(Cc1ccc(C(=O)N3CCCC3)cc1)C2,-25.8
15,Cc1cc(C2CCCN(C(=O)CN3CCN(C)CC3)C2)n[nH]1 (configuration not stated),-11.8
16,Cc1ncsc1C(=O)NCc1cccs1,-16.4
17,Cn1cc(CCNC(=O)CCc2ccc3c(c2)OCO3)cn1,-8.33
18,CC(NC(=O)NCCCn1cncn1)c1ccc2c(c1)OCCO2 (configuration not stated),-7.07
19,Cc1ccc(C(C)N(C)Cc2nc3c(cnn3C)c(=O)[nH]2)cc1 (configuration not stated),-17.2
20,CC(c1ccco1)N(C)Cc1nc2c(cnn2C)c(=O)[nH]1 (configuration not stated),-11.1
21,CC(C(N)=O)N(C)CCCc1cc(-c2ccccc2)no1 (configuration not stated),-2.88
22,CS(=O)(=O)NC1CCN(C(=O)NCCNc2ccccn2)CC1,20.3
23,CCOc1ncccc1NC(=O)N1CCN(c2cccc(C)c2C)CC1,21.9
24,CC(=O)NCCNC(=O)N(C)Cc1ccc2c(c1)OCCO2,-12

row,Compound,cytotoxicity at 70.5 h [%]
1,N#Cc1ccccc1OCCN1CCC(N2CCNC2=O)CC1,-11.9
2,O=C(CN1CCOC(Cn2cccn2)C1)Nc1nccs1 (configuration not stated),-16.1
3,COc1nc(C)cc(C)c1CNC(=O)N(C)Cc1cnn(C)c1,-18
4,OCCn1cc(CN2CCN(CCOc3ccccc3)CC2)cn1,-16
5,Cc1cnn(CCNCc2ccc(C#N)cc2F)c1,-13.7
6,Cc1cnn(CCNCc2ccc(F)cc2Cl)c1,-10.2
7,Cc1nn(C)c(C)c1C1CCCN1C(=O)c1ccc(NC2CC2)nc1 (configuration not stated),-17.5
8,CNc1nc(CNC(=O)Nc2cccc(F)c2)cs1,-6.65
9,COCCCN1CCCN(C(C)c2nc(C3CC3)no2)CC1 (configuration not stated),-4.41
10,O=C(CN1CCOC(Cn2cccn2)C1)NCc1cccs1 (configuration not stated),-8.73
11,Cc1nc(C2CCCN2Cc2nnc(C3CC3)o2)no1 (configuration not stated),0.406
12,CS(=O)(=O)N1CCCN(C(=O)c2ccc(Cn3ccccc3=O)o2)CC1,-7.8
13,COc1ccccc1CC(=O)N1CCC(NCc2cccnc2)CC1,24
14,Cc1nc(C2CCCN2Cc2nc(C)c(C)o2)no1 (configuration not stated),-2.71
15,Cn1nccc1C1CCN(Cc2csc(-c3ncccn3)n2)CC1,-5.7
16,COCc1ccccc1CNc1nnc(C)c(C)c1C#N,21.2
17,NC(=O)Cc1ccc(NC(=O)C2CCOCC2)cc1,-3.85
18,CSc1ccc(CNC(c2ccccc2)c2nccn2C)cc1 (configuration not stated),-1.21
19,Cn1ccnc1C(NCc1csc(Br)c1)c1ccccc1 (configuration not stated),-1.31
20,CC(=O)NCCNC(=O)c1sc(-c2ccc(Cl)s2)nc1C,28.8
21,Cc1ncsc1C(=O)NCCn1nc2ccccn2c1=O,-13.7
22,c1cnc(-c2nc(CN3CCC(c4ccn[nH]4)CC3)cs2)nc1,0.264
23,CC(=O)N1CCCN(C(=O)c2csc(-c3ccc(C)cc3C)n2)CC1,-4.64
24,O=C(NCc1ccccn1)Nc1cc(C(F)(F)F)c[nH]c1=O,9.08

row,Compound,cytotoxicity at 70.5 h [%]
1,NC(=O)C1CCN(C(=O)c2ccn(-c3ccc(F)cc3)n2)C1 (configuration not stated),-1.48
2,CC(=O)N1CCN(C(=O)NCc2csc(Br)c2)CC1,-9.87
3,CCOc1cc(C)nc(N2CCN(C(=O)c3ccc[nH]3)CC2)n1,-7.65
4,CC(C)CCOCCNC(=O)Nc1cc(C(F)(F)F)c[nH]c1=O,-2.4
5,CCOC(=O)c1sc2ccsc2c1CNC(=O)CC,-3.4
6,c1nc2n(n1)CC(NCc1nc(-c3ccsc3)no1)CC2 (configuration not stated),-8.53
7,Cc1cc(C)n(CC2CCCN2C(=O)c2c[nH]c3ncccc23)n1 (configuration not stated),27.2
8,CC(=O)NCCNC(=O)CN1CCN(Cc2nccn2C)C(C)C1 (configuration not stated),-2.6
9,CCc1nc(CN(C)CC(c2cccs2)N2CCOCC2)no1 (configuration not stated),18.8
10,N#Cc1ccnc(N2CCN(C(=O)NC3CCS(=O)(=O)C3)CC2)c1 (configuration not stated),-7.36
11,Cc1nc(C)c(C(=O)NCCNC(=O)c2ccc(F)cc2F)s1,-6.45
12,CCS(=O)(=O)c1ccccc1N1CCC(NC(C)=O)CC1,-4.79
13,CC(C)c1nc2c(n1C)CCN(Cc1nc(-c3ccsc3)no1)C2,-9.76
14,CC(C)Cc1noc(CN2CCCC(Cn3cncn3)C2)n1 (configuration not stated),3.45
15,CC(C)Cc1noc(CN2CCOC(Cn3cncn3)C2)n1 (configuration not stated),-5.1
16,O=C(CCCNC(=O)C1CC1)Nc1cnn(-c2ccccc2Cl)c1,-1.38
17,Cn1cnc2c1CCN(Cc1nc(-c3ccsc3)no1)C2,32.4
18,Cc1nc(C2CCCN2CC(=O)N(Cc2ccsc2)C2CC2)no1 (configuration not stated),-5.17
19,O=C(c1nc(=O)[nH][nH]1)N1CCCC(c2cc(C(F)(F)F)[nH]n2)C1 (configuration not stated),34.5
20,Cc1ccc(C(=O)NS(=O)(=O)c2ccccc2C)c(=O)[nH]1,-4.91
21,COc1cc(CNCC(O)c2ccc(C)cc2)cc2c1OCCO2 (configuration not stated),4.82

# Source: ChEMBL document CHEMBL3507680, “University of Dundee, Gates Library screen for HepG2 cell viability”
